Experimental data: ChEMBL document CHEMBL5725313, “Highly selective c-Met inhibitors as anticancer agents” (2017)

Target: Hepatocyte growth factor receptor (Homo sapiens, UniProt P08581)
Assay: c-Met In Vitro Kinase Assay: Optiplate-384 well plate (PerKinElmer), kinase buffer (50 mM Hepes pH7.5, 25 mM NaCl, 2 mM DTT, 0.01% Tween 20, 5 mM Mg2+, 0.5 mM Mn2+), c-Met kinase (1038-1346AA, prepared in-house), c-Met substrate (PerKinElmer, #TRF0127-M), Lance@Eu-W 1024-anti-phosphotyrosine (PT66), (PerKinElmer, #AD0068), ATP (Invitrogen), DMSO (Sigma, #34869), water (Millipore, model Milli-Q). A mixture of c-Met kinase (final concentration 12.5 nM) and test compound (final DMSO is 0.5%) is pre-incubated at 30° C. for 20 min. Then ATP (final concentration 2.5 uM) and kinase substrate (final concentration 50 nM) are added. The resulting mixture is kept at 30° C. for 1 hr, followed by addition of the c-Met antibody. After 1 hr, the plate is read at 615 nm and 665 nm. The ratio of absorption values at 665 nm and 615 nm is calculated and used for the data analysis as follows. This assay has a Minimum Significant Ratio (MSA) of 2-3.

Chain of Hepatocyte growth factor receptor (P08581 whole entry): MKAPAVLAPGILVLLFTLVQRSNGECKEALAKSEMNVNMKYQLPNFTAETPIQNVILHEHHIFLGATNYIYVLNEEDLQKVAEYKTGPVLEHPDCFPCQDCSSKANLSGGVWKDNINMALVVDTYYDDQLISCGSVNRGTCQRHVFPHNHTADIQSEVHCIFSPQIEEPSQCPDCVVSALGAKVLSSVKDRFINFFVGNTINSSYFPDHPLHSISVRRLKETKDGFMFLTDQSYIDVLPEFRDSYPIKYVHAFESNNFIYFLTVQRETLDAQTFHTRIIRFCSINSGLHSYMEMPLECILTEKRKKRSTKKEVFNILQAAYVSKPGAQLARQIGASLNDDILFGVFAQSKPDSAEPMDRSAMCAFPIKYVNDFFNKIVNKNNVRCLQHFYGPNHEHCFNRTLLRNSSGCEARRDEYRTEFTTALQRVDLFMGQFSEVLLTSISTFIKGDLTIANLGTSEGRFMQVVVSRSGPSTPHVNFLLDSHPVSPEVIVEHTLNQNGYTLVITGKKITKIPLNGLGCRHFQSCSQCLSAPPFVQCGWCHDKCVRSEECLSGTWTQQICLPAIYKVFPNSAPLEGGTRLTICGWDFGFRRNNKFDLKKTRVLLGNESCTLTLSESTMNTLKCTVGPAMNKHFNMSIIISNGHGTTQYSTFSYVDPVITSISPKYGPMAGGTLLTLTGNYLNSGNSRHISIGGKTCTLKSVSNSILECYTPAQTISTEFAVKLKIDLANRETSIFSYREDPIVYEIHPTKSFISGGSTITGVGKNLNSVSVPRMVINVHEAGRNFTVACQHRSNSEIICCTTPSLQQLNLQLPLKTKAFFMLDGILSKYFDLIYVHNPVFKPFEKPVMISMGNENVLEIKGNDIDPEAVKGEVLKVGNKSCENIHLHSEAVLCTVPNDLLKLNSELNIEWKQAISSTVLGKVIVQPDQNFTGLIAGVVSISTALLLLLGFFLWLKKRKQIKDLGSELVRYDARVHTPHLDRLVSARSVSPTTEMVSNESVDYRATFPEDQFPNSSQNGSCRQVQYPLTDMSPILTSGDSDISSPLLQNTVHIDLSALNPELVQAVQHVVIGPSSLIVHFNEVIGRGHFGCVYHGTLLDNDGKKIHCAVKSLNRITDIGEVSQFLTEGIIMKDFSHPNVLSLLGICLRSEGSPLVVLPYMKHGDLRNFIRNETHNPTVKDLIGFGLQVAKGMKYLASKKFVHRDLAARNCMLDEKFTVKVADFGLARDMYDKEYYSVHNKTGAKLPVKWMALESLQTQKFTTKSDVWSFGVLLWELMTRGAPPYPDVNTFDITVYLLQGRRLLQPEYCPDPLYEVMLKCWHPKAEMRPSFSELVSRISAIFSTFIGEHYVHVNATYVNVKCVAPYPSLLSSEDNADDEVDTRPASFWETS

SMILES	IC50 [nM]
Cn1cc2c(F)c(C(F)(F)c3nnc4ccc(-c5cncc(F)c5)nn34)ccc2n1	261
Cc1cncc(-c2ccc3nnc(C(F)(F)c4ccc5nn(C)cc5c4F)n3n2)c1	119
Cn1cc2c(F)c(C(F)(F)c3nnc4ccc(-c5cncc(Cl)c5)nn34)ccc2n1	194
CNC(=O)c1ccc(-c2ccc3nnc(C(F)(F)c4ccc5nn(C)cc5c4F)n3n2)cn1	149
